In patent US20240140957A1, “BRIDGED COMPOUNDS AS KRAS G12D INHIBITOR AND DEGRADER AND THE USE THEREOF” (BeiGene Switzerland GmbH, priority 2021, published 2024):

Target: GDP-loaded KRAS G12D (Homo sapiens, UniProt P01116, G12D)
Assay: KRAS G12D Probe Displacement Assay
Format: binding
Conditions: KRAS G12D 0.5 nM, biotinylated probe 2 4 nM; Table 6 letters; read-out: KRAS G12D Probe Displacement Assay IC50 (class)

Sequence of GDP-loaded KRAS G12D (P01116 1-188 isoform P01116-2 G12D): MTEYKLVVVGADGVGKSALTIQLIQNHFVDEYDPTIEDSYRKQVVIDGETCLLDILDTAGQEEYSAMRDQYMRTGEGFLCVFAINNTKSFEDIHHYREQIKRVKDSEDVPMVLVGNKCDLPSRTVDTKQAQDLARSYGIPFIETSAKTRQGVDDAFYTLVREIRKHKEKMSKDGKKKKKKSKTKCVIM

| Structure (SMILES) | IC50 |
| --- | --- |
| Nc1nc2c(-c3c(C(F)(F)F)cc4c(N5CC6CCCC(C5)N6)nc(OC[C@@]56CCCN5C[C@H](F)C6)nc4c3F)ccc(F)c2s1 [Example E90, 4-(4-(3,9-diazabicyclo[3.3.1]nonan-3-yl)-8-fluoro-2-(((2R,7aS)-2-fluorotetrahydro-1H-pyrrolizin-7a(5H)-yl)methoxy)-6-(trifluoromethyl)quinazolin-7-yl)-7-fluorobenzo[d]thiazol-2-amine] | < 50 nM |
| Nc1nc2c(-c3c(C4CC4(F)F)cc4c(N5CC6CCC(C5)N6)nc(OC[C@@]56CCCN5C[C@H](F)C6)nc4c3F)ccc(F)c2s1 (stereo partly drawn) [Example E91, 4-(4-(3,8-diazabicyclo[3.2.1]octan-3-yl)-6-(2,2-difluorocyclopropyl)-8-fluoro-2-((2-fluorotetrahydro-1H-pyrrolizin-7a(5H)-yl)methoxy)quinazolin-7-yl)-7-fluorobenzo[d]thiazol-2-amine] | < 50 nM |
| Cc1cc(N)nc(-c2c(SC(F)(F)F)cc3c(N4CC5CCC(C4)N5)nc(OC[C@@]45CCCN4C[C@H](F)C5)nc3c2F)c1C(F)(F)F [Example E92, 6-(4-(3,8-diazabicyclo[3.2.1]octan-3-yl)-8-fluoro-2-(((2R,7aS)-2-fluorotetrahydro-1H-pyrrolizin-7a(5H)-yl)methoxy)-6-((trifluoromethyl)thio)quinazolin-7-yl)-4-methyl-5-(trifluoromethyl)pyridin-2-amine] | < 50 nM |
| Nc1nc2c(-c3c(SC(F)(F)F)cc4c(N5CC6CCC(C5)N6)nc(OC[C@@]56CCCN5C[C@H](F)C6)nc4c3F)ccc(F)c2s1 [Example E94, 4-(4-(3,8-diazabicyclo[3.2.1]octan-3-yl)-8-fluoro-2-(((2R,7aS)-2-fluorotetrahydro-1H-pyrrolizin-7a(5H)-yl)methoxy)-6-((trifluoromethyl)thio)quinazolin-7-yl)-7-fluorobenzo[d]thiazol-2-amine] | < 50 nM |
| Nc1nc2c(-c3c(C(F)(F)F)cc4c(N5[C@@H]6CC[C@H]5C(NCCC(F)F)C6)nc(OC[C@@]56CCCN5C[C@H](F)C6)nc4c3F)ccc(F)c2s1 (stereo partly drawn) [Example E95, 4-(4-((1S,4R)-2-((3,3-difluoropropyl)amino)-7-azabicyclo [2.2.1]heptan-7-yl)-8-fluoro-2-(((2R,7As)-2-fluorotetrahydro-1H-pyrrolizin-7a(5H)-yl)methoxy)-6-(trifluoromethyl)quinazolin-7-yl)-7-fluorobenzo[d]thiazol-2-amine] | < 50 nM |
| Cc1cc(N)nc(-c2c(Cl)cc3c(N4C5CCC4CNC5)nc(OC[C@@]45CCCN4C[C@H](F)C5)nc3c2F)c1C(F)(F)F [Example E96] | < 50 nM |
| COCCCNC1C[C@H]2CC[C@@H]1N2c1nc(OC[C@@]23CCCN2C[C@H](F)C3)nc2c(F)c(-c3ccc(F)c4sc(N)nc34)c(C(F)(F)F)cc12 (stereo partly drawn) [Example E97, 7-fluoro-4-(8-fluoro-2-(((2R,7aS)-2-fluorotetrahydro-1H-pyrrolizin-7a(5H)-yl)methoxy)-4-((1S,4R)-2-((3-methoxypropyl)amino)-7-azabicyclo [2.2.1]heptan-7-yl)-6-(trifluoromethyl)quinazolin-7-yl) benzo[d]thiazol-2-amine] | < 50 nM |
| Nc1nc2c(-c3c(C(F)(F)F)cc4c(N5C6CNCC5COC6)nc(OC[C@@]56CCCN5C[C@H](F)C6)nc4c3F)ccc(F)c2s1 [Example E98] | < 50 nM |
| CN(C)C(=O)CCNC1C[C@H]2CC[C@@H]1N2c1nc(OC[C@@]23CCCN2C[C@H](F)C3)nc2c(F)c(-c3ccc(F)c4sc(N)nc34)c(C(F)(F)F)cc12 (stereo partly drawn) [Example E99, 3-(((1S,4R)-7-(7-(2-amino-7-fluorobenzo[d]thiazol-4-yl)-8-fluoro-2-(((2R,7aS)-2-fluorotetrahydro-1H-pyrrolizin-7a(5H)-yl)methoxy)-6-(trifluoromethyl)quinazolin-4-yl)-7-azabicyclo [2.2.1]heptan-2-yl)amino)-N,N-dimethyl propanamide] | < 50 nM |
